Test results published in ChEMBL document CHEMBL1157452, “First synthesis of alpha-aminoalkyl-(N-substituted)thiocarbamoyl-phosphinates: inhibitors of aminopeptidase N (APN/CD13) with the new zinc-binding group” (Bioorg Med Chem Lett, 2008).

The compounds below were run against T1, Aminopeptidase N (Sus scrofa, UniProt P15145) (assay: Inhibition of pig kidney aminopeptidase N).
T1 sequence (P15145 whole entry): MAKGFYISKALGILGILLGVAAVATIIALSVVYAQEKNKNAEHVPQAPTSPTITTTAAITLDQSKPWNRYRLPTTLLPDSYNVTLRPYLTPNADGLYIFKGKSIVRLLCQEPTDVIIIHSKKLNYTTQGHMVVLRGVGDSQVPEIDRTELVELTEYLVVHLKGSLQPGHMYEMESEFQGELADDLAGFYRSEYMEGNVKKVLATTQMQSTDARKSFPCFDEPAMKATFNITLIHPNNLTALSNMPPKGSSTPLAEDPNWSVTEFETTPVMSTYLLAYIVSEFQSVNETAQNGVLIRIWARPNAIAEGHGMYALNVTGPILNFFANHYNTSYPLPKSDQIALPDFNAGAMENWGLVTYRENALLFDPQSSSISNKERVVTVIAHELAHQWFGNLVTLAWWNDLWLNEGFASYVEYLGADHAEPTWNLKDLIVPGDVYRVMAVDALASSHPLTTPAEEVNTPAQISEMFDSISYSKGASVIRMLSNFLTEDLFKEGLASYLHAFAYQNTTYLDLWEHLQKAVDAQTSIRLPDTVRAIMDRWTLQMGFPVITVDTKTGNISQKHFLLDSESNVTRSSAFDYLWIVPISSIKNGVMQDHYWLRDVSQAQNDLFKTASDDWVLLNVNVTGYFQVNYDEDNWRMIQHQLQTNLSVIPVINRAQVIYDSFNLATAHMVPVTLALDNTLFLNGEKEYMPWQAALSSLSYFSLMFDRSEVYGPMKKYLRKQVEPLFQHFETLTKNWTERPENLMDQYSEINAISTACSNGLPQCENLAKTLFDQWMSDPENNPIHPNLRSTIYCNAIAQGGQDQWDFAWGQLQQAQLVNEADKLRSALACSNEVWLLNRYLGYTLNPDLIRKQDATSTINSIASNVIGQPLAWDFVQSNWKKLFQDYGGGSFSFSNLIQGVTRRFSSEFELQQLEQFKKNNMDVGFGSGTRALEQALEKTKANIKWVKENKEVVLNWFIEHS

Going from CC(C)CNC(=S)P(=O)(O)C(N)C(C)C (configuration not stated) to CCCCCCNC(=S)P(=O)(O)C(N)C(C)C (configuration not stated), the IC50 falls from 1900 nM to 1180 nM (1.6-fold). The second is the more potent here.

First: CNC(=S)P(=O)(O)C(N)CC(C)C (configuration not stated)
Second: CCCCCCNC(=S)P(=O)(O)C(N)CC(C)C (configuration not stated)
The IC50 of the first is 21-fold higher: 10600 nM for the first, 500 nM for the second. The second is the more potent here.

Going from CC(N)P(=O)(O)C(=S)NCCc1ccccc1 (configuration not stated) to CCCC(N)P(=O)(O)C(=S)NCCc1ccccc1 (configuration not stated), the IC50 falls from 4200 nM to 2280 nM (1.8-fold). The second is the more potent here.

Compared with COc1ccc(CNC(=S)P(=O)(O)C(N)CCc2ccccc2)cc1 (configuration not stated), CCCC(N)P(=O)(O)C(=S)NCc1ccc(OC)cc1 (configuration not stated) is 1.8-fold higher in IC50: 380 nM for the first, 680 nM for the second. The first is the more potent here.

First: COc1ccc(CNC(=S)P(=O)(O)C(C)N)cc1 (configuration not stated)
Second: CCCCC(N)P(=O)(O)C(=S)NCc1ccc(OC)cc1 (configuration not stated)
The IC50 of the first is 4.5-fold higher: 1120 nM for the first, 250 nM for the second. The second is the more potent here.

Compound CCCCC(N)P(=O)(O)C(=S)NCCc1ccccc1 (configuration not stated) has an IC50 of 730 nM.

Compound CCCCC(N)P(=O)(O)C(=S)NCc1ccc(OC)cc1 (configuration not stated) has a Ki of 143 nM.
